Values of other authors, collected in patent publication US20140099366A1, “Composition Containing Two Anti-Dementia Drugs” (priority 2005, published 2014).
Where a name gives a salt, the structure may show the parent alone.

Tested on: patients with moderate to severe Alzheimer-type dementia
Conditions: added to donepezil hydrochloride already administered, compared to placebo group

In the case of CC12CC3CC(C)(C1)CC(N)(C3)C2 [memantine hydrochloride], the “cognitive ability and activities of daily living” value is listed as “improved”.
